Assay [1] addresses ligand binding domain (LBD) of recombinant human FXR (Homo sapiens (Human), UniProt Q96RI1). Description: FXR cell free coactivator (SRC-1) recruitment assay, TR-FRET. The settings on record: FXR LBD (amino acids 244-476) with labeled SRC-1 domain, 25° C. for 60 minutes, activity relative to CDCA maximum; read-out: EC50 FXR- Biochemical TR-FRET/μM. Here is the method:
A cell free coactivator recruitment assay was developed for FXR, to measure the functional potency of novel FXR compounds. In this assay, novel FXR compounds were bound to the ligand binding domain (LBD) of recombinant human FXR. The ability of this liganded homodimeric complex to recruit the co-activator protein steroid receptor coactivator 1 (SRC-1) was measured using Time-Resolved Fluorescence Resonance Energy Transfer (TR-FRET).
The LBD of human FXR (amino acids 244-476) was cloned into an expression vector for protein expression in SF9 insect cells. Purified FXR LBD was incubated in TR-FRET coregulator buffer G (Eurofins) with test compounds (0-10 micromolar) and a labeled nuclear receptor interaction domain of SRC-1 at 25° C. for 60 minutes (final DMSO vehicle concentration was 1.2%). Assays were analyzed using an Envision TR-FRET reader (PerkinElmer Life and Analytical Sciences). Compound activity at each concentration was defined as a percentage of the maximal activity of the natural FXR ligand agonist chenodeoxycholic acid (CDCA) generating a dose response curve.

Assay [2] has as its target full length human FXR protein (Homo sapiens (Human), UniProt Q96RI1). Description: FXR cellular assay (FXR-SRCP β-gal enzyme fragment complementation in CHO-K1 cells, chemiluminescence). Type of assay: cell-based. The settings on record: CHO-K1 cells with SRCP-EA and ProLink-labeled FXR, 0-10 micromolar compound, 37° C. for 6h, read-out: EC50 FXR-cell Luminescence/. The text has this: A cell based FXR assay was used to detect protein-protein interactions between an activated (ligand-bound), full length human FXR protein and a nuclear fusion protein containing a Steroid Receptor Coactivator Peptide (SCRP) domain. In this approach, two weakly complementing fragments of the 3-gal enzyme were expressed within stably transfected Chinese Hamster Ovary (CHO-K1) cells. The complementing fragments of the 3-gal enzyme (ProLink, PK; and Enzyme Acceptor, EA) were translationally fused to the C-terminus of a full-length FXR and to the SRCP, respectively. Complementation was driven by the protein-protein interaction between SRCP-EA and a ProLink-labeled FXR. Upon FXR-SRCP binding, the two fragments of 3-gal complement, forming a functional enzyme capable of hydrolyzing a substrate molecule and generating a chemiluminescent signal.
CHO-K1 cells containing SRCP-EA and ProLink-labeled FXR were plated in 384-well microplates and incubated at 37° C. overnight. A positive control FXR agonist, GW4064 (0-10 micromolar), or test compounds (0-10 micromolar) were added to plated cells and incubated at 37° C. for 6h (final DMSO vehicle concentration was 1%). The assay signal was generated by addition of 50% (v/v) detection reagent (19:5:1, cell assay buffer: substrate reagent 1: substrate reagent 2, DiscoverX) followed by incubation for 1h at ambient room temperature. Microplates were analyzed using an Envision reader (PerkinElmer Life and Analytical Sciences, Signal=chemiluminescence).

Values joined by “and” are separate entries in the source; they are usually repeats but may differ in a detail not shown here. Equal entries are not always repeated.

ligand binding domain (LBD) of recombinant human FXR, sequence (Q96RI1 254-486): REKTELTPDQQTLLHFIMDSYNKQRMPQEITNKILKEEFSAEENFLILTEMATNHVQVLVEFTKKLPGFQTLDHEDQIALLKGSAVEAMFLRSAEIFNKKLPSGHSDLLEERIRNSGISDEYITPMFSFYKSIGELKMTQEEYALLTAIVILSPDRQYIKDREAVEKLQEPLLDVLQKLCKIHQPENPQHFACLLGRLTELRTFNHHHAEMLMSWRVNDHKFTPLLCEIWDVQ
ligand binding domain (LBD) of recombinant human FXR, sequence (Q15788 whole entry partner, the tested form may be a part): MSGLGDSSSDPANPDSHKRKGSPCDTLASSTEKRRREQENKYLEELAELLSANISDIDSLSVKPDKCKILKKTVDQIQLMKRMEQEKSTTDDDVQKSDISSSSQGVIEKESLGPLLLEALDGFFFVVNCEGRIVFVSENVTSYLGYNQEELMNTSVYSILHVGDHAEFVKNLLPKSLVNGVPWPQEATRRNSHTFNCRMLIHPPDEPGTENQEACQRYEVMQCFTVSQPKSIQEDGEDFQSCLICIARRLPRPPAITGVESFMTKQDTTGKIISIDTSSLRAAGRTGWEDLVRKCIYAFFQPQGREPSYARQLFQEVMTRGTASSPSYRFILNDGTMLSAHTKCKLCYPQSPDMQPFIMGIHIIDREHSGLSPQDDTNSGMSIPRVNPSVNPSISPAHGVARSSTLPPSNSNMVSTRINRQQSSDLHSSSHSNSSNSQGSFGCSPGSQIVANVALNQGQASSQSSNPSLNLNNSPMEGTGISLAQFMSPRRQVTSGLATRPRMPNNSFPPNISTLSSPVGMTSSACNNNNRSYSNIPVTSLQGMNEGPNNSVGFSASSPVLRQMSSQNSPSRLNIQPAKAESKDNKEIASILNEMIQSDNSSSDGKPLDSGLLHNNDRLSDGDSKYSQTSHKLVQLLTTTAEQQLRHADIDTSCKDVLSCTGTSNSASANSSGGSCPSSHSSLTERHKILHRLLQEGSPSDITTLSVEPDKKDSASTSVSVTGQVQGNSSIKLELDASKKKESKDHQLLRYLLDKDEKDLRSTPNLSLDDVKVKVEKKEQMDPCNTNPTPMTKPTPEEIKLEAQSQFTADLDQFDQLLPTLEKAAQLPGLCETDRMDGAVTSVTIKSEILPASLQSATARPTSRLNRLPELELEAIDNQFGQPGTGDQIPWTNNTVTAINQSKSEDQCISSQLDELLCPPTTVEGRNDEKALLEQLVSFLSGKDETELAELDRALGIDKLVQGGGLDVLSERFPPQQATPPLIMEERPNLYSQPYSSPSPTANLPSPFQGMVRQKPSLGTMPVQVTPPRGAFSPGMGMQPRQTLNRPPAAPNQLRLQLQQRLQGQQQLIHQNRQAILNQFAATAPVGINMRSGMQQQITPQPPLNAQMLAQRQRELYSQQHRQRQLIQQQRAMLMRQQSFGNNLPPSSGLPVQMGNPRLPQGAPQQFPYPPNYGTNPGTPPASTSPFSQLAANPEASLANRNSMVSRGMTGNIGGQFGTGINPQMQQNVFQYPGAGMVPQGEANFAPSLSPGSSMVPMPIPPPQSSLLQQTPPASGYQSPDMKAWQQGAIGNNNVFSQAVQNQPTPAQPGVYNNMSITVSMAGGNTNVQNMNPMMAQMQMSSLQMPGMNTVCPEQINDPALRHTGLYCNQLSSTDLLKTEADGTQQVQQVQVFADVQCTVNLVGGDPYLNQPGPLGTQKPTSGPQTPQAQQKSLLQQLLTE
full length human FXR protein, sequence (Q96RI1 whole entry, the tested form may be a part): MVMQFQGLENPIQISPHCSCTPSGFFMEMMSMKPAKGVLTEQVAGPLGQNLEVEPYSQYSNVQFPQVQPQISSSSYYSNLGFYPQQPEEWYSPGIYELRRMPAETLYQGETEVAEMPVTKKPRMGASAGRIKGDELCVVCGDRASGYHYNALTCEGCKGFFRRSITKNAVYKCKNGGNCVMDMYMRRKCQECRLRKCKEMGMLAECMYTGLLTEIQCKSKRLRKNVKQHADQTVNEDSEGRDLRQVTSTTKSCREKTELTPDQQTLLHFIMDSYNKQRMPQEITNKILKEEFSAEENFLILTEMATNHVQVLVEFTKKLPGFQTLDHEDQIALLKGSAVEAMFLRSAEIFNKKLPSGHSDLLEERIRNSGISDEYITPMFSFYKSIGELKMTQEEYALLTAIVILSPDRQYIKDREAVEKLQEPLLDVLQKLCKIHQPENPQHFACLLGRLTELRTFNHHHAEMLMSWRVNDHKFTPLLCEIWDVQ

Consider `O=c1cc(-c2ccc(N3CCC(OCc4c(-c5ccccc5OC(F)(F)F)noc4C4CC4)CC3)nc2)o[nH]1` [Example 60, 5-(6-(4-((5-cyclopropyl-3-(2-(trifluoromethoxy)phenyl)isoxazol-4-yl)methoxy)piperidin-1-yl)pyridin-3-yl)isoxazol-3(2H)-one], for which the EC50 stood at 0.104 µM in assay [1] and 779 nM in assay [2].
For `O=c1[nH]c(-c2ccc(N3CCC(OCc4c(-c5c(Cl)cccc5Cl)noc4C4CC4)CC3)nc2)no1` [Example 6, 3-(6-(4-((5-cyclopropyl-3-(2,6-dichlorophenyl)isoxazol-4-yl)methoxy)piperidin-1-yl)pyridin-3-yl)-1,2,4-oxadiazol-5(4H)-one], in that order: 0.0044 µM and 372 nM.
Regarding `Clc1cccc(Cl)c1-c1noc(C2CC2)c1COC1CCN(c2ccc(C3=NN3)cc2)CC1` [Example 2, 4-(((1-(4-(1H-diazirin-3-yl)phenyl)piperidin-4-yl)oxy)methyl)-5-cyclopropyl-3-(2,6-dichlorophenyl)isoxazole], the figures for the EC50 in assay [1] and in assay [2] were 2.89 µM and 691 nM, respectively.
For the compound `O=c1[nH]nc(-c2ccc(N3CCC(OCc4c(-c5c(Cl)cccc5Cl)noc4C4CC4)CC3)cc2)c(=O)[nH]1` [Example 10, 6-(4-(4-((5-cyclopropyl-3-(2,6-dichlorophenyl)isoxazol-4-yl)methoxy)piperidin-1-yl)phenyl)-1,2,4-triazine-3,5(2H,4H)-dione], the EC50 in assay [1] was 0.0091 µM; in assay [2], 409 nM.
Regarding `O=c1[nH]c(-c2ccc(N3CCC(OCc4c(-c5c(F)cccc5F)noc4C4CC4)C(F)(F)C3)nc2)no1` (stereo not shown) [Example 63, 3-(6-(4-((5-cyclopropyl-3-(2,6-difluorophenyl)isoxazol-4-yl)methoxy)-3,3-difluoropiperidin-1-yl)pyridin-3-yl)-1,2,4-oxadiazol-5(4H)-one], the EC50 came out at 0.215 µM in assay [1] and 2660 nM in assay [2].
In the case of `O=c1[nH]c(-c2ccc(N3CC(OCc4c(-c5c(Cl)cccc5Cl)noc4C4CC4)C3)cc2)no1` [Example 19, 3-(4-(3-((5-cyclopropyl-3-(2,6-dichlorophenyl)isoxazol-4-yl)methoxy)azetidin-1-yl)phenyl)-1,2,4-oxadiazol-5(4H)-one], the EC50 in assay [1] was 0.122 µM; in assay [2], 840 nM.
Turning to `O=c1cn[nH]c(=O)n1-c1ccc(N2CCC(OCc3c(-c4c(Cl)cccc4Cl)noc3C3CC3)CC2)cc1` [Example 62, 4-(4-(4-((5-cyclopropyl-3-(2,6-dichlorophenyl)isoxazol-4-yl)methoxy)piperidin-1-yl)phenyl)-1,2,4-triazine-3,5(2H,4H)-dione], the EC50 in assay [1] was 6.35 µM and 6.07 µM; in assay [2] it was > 10000 nM and 4730 nM.
On to `O=c1[nH]nc(-c2ccc(N3[C@@H]4CC[C@H]3C[C@@H](OCc3c(-c5ccccc5OC(F)(F)F)noc3C3CC3)C4)cc2)c(=O)[nH]1` [Example 67, 6-(4-((1R,3r,5S)-3-((5-cyclopropyl-3-(2-(trifluoromethoxy)phenyl)isoxazol-4-yl)methoxy)-8-azabicyclo[3.2.1]octan-8-yl)phenyl)-1,2,4-triazine-3,5(2H,4H)-dione], for which the EC50 worked out at 0.0127 µM in assay [1] and 65.7 nM in assay [2].
With `O=c1[nH]c(-c2ccc(N3CCC(OCc4c(-c5ccccc5OC(F)(F)F)noc4C4CC4)CC3)cc2)no1` [Example 36, 3-(4-(4-((5-cyclopropyl-3-(2-(trifluoromethoxy)phenyl)isoxazol-4-yl)methoxy)piperidin-1-yl)phenyl)-1,2,4-oxadiazol-5(4H)-one], the values for the EC50 in assay [1] and in assay [2] were 0.0188 µM and 113 nM, respectively.
For `O=c1[nH]c(-c2ccc(N3[C@@H]4CC[C@H]3C[C@@H](OCc3c(-c5ccccc5OC(F)(F)F)noc3C3CC3)C4)nc2)no1` [Example 66, 3-(6-((1R,3r,5S)-3-((5-cyclopropyl-3-(2-(trifluoromethoxy)phenyl)isoxazol-4-yl)methoxy)-8-azabicyclo[3.2.1]octan-8-yl)pyridin-3-yl)-1,2,4-oxadiazol-5(4H)-one], in that order: 0.003 µM and 247 nM.
For the compound `O=c1[nH]nc(-c2ccc(N3CCC(OCc4c(-c5c(Cl)cccc5Cl)noc4C4CC4)CC3)nc2)o1` [Example 37, 5-(6-(4-((5-cyclopropyl-3-(2,6-dichlorophenyl)isoxazol-4-yl)methoxy)piperidin-1-yl)pyridin-3-yl)-1,3,4-oxadiazol-2(3H)-one], the results for the EC50 in assay [1] and in assay [2] were 0.0494 µM and 274 nM, respectively.
For `O=c1[nH]nc(-c2ccc(N3CCC(OCc4c(-c5c(Cl)cccc5Cl)noc4C4CC4)CC3)cc2)o1` [Example 12, 5-(4-(4-((5-cyclopropyl-3-(2,6-dichlorophenyl)isoxazol-4-yl)methoxy)piperidin-1-yl)phenyl)-1,3,4-oxadiazol-2(3H)-one], in that order: 0.0737 µM and 437 nM.
Take `O=c1[nH]c(-c2cc(N3CCC(OCc4c(-c5c(Cl)cccc5Cl)noc4C4CC4)CC3)no2)no1` [Example 42, 3-(3-(4-((5-cyclopropyl-3-(2,6-dichlorophenyl)isoxazol-4-yl)methoxy)piperidin-1-yl)isoxazol-5-yl)-1,2,4-oxadiazol-5(4H)-one]: the EC50 in assay [1] came to 0.139 µM; in assay [2] it was 10000 nM.
As to `O=c1[nH]c(-c2ccc(N3CCC(OCc4c(-c5c(Cl)cccc5Cl)noc4C4CC4)CC3)cc2)no1` [Example 3, 3-(4-(4-((5-cyclopropyl-3-(2,6-dichlorophenyl)isoxazol-4-yl)methoxy)piperidin-1-yl)phenyl)-1,2,4-oxadiazol-5(4H)-one], the EC50 in assay [1] was 0.0036 µM and 0.0029 µM; in assay [2], 97 nM and 49.8 nM.
With `C[C@@H]1C[C@H](OCc2c(-c3ccccc3Cl)noc2C2CC2)CCN1c1ccc(-c2noc(=O)[nH]2)cn1` [Example 72, 3-(6-((2R,4R)-4-((3-(2-chlorophenyl)-5-cyclopropylisoxazol-4-yl)methoxy)-2-methylpiperidin-1-yl)pyridin-3-yl)-1,2,4-oxadiazol-5(4H)-one], the EC50 in assay [1] was 0.0045 µM; in assay [2], 54.9 nM.
`O=c1[nH]c(-c2cc(N3CCC(OCc4c(-c5c(Cl)cccc5Cl)noc4C4CC4)CC3)n[nH]2)no1` [Example 58, 3-(3-(4-((5-cyclopropyl-3-(2,6-dichlorophenyl)isoxazol-4-yl)methoxy)piperidin-1-yl)-1H-pyrazol-5-yl)-1,2,4-oxadiazol-5(4H)-one]: the EC50 in assay [1] was determined as 0.421 µM; in assay [2], 11700 nM.
For `O=c1[nH]nc(-c2ccc(N3CCC(OCc4c(-c5c(Cl)cccc5Cl)noc4C4CC4)CC3)nc2)c(=O)[nH]1` [Example 43, 6-(6-(4-((5-cyclopropyl-3-(2,6-dichlorophenyl)isoxazol-4-yl)methoxy)piperidin-1-yl)pyridin-3-yl)-1,2,4-triazine-3,5(2H,4H)-dione], in that order: 0.0112 µM and 248 nM.
In the case of `O=c1[nH]c(-c2ccc(N3[C@@H]4CC[C@H]3C[C@@H](OCc3c(-c5ccccc5OC(F)(F)F)noc3C3CC3)C4)cc2)no1` [Example 50, 3-(4-((1R,3r,5S)-3-((5-cyclopropyl-3-(2-(trifluoromethoxy)phenyl)isoxazol-4-yl)methoxy)-8-azabicyclo[3.2.1]octan-8-yl)phenyl)-1,2,4-oxadiazol-5(4H)-one], the results for the EC50 in assay [1] and in assay [2] were 0.0032 µM and 53.8 nM, respectively.
`O=c1[nH]nc(-c2ccc(N3[C@@H]4CC[C@H]3C[C@@H](OCc3c(-c5ccccc5OC(F)(F)F)noc3C3CC3)C4)cc2)o1` [Example 65, 5-(4-((1R,3r,5S)-3-((5-cyclopropyl-3-(2-(trifluoromethoxy)phenyl)isoxazol-4-yl)methoxy)-8-azabicyclo[3.2.1]octan-8-yl)phenyl)-1,3,4-oxadiazol-2(3H)-one]: the EC50 in assay [1] came out at 0.0221 µM; in assay [2], 954 nM.
For `C[C@@H]1C[C@@H](OCc2c(-c3c(Cl)cccc3Cl)noc2C2CC2)CCN1c1ccc(-c2noc(=O)[nH]2)cc1` [Example 21, 3-(4-((2R,4S)-4-((5-cyclopropyl-3-(2,6-dichlorophenyl)isoxazol-4-yl)methoxy)-2-methylpiperidin-1-yl)phenyl)-1,2,4-oxadiazol-5(4H)-one], in that order: 0.0793 µM and 343 nM.

The values are drawn from patent publication US20240116912A1, “COMPOUNDS AND METHODS FOR MODULATING FXR” (Terns Pharmaceuticals, Inc., priority 2020, published 2024).
